Results from patent US5519021A, “Benzoxazinones as inhibitors of HIV reverse transcriptase” (priority 1995, dated 1996).
Read-outs that look alike come from different tables or passages of the source.

Experiments:
A17 RT = target: T1, A17 RT (Human immunodeficiency virus type 1 group M subtype B, UniProt P04585, K690N/Y768C); test: biochemical; set-up: species or system HIV-1
T1 construct: A17 RT was employed in the assay; made in house; host or cells: bacteria
Experimental: (§1) The assay measures the incorporation of tritiated deoxyguanosine monophosphate by recombinant HIV reverse transcriptase (HIV RTR) (or other RT) into acid-precipitable cDNA at the Km values of dGTP and poly r(C).cndot.oligo d(G)12-18.
(§2) The assays were carried out in 55 mM Tris (pH 8.2)-30 mM KCl-30 mM MgCl2 -1 mM dithiothreitol-20 μg of rC:dG 12-18 (Pharmacia) per ml-8 mM [^3 H]dGTP (New England Nuclear)-0.01% Triton X-100-50 mM ethylene glycol-bis(β-amino-ethyl ether)-N,N,N',N'-tetraacetic acid (EGTA)-1 mg of bovine serum albumin per ml. After 60 min of incubation at 37° C., acid-precipitable material was collected onto glass fiber filters by using a semiautomatic cell harvester. Bacterial cell extracts containing RT were diluted to within the linear range of the assay, and activity was determined in the presence and absence of inhibitor. Purified HIV-1 RT heterodimer produced in E. coli also served as a control.
For the double mutant assay (dm), A17 RT was employed in the assay. […] Results are measured as IC50 dm in nanomoles/liter.

[1] = target: T2, recombinant HIV reverse transcriptase (HIV RTR) (Human immunodeficiency virus type 1 group M subtype B, UniProt P04585); test: Reverse transcriptase assay (wild type); format: biochemical, HIV-1
T2 construct: recombinant HIV reverse transcriptase (HIV RTR); made in house; host or cells: E. coli
Experimental: as §1, §2

HIV-1 (wild-type) = test: Cell spread assay (MT-4 T-lymphoid cells); format: cell-based; settings: Human immunodeficiency virus 1, MT4, 72 h, read-out: CIC*95
Experimental: Inhibition of the spread of HIV in cell culture was measured according to Nunberg, J. H. et al., J. Virol. 65, 4887 (1991 ). In this assay, MT-4 T-lymphoid cells were infected with HIV-1 (wild-type, unless otherwise indicated) by using a predetermined inoculum, and cultures were incubated for 24 h. At this time, ≤1% of the cells were positive by indirect immunofluorescence. Cells were then extensively washed and distributed into 96-well culture dishes. Serial twofold dilutions of inhibitor were added to the wells, and cultures were continued for 3 additional days. At 4 days postinfection, 100% of the cells in control cultures were infected. HIV-1 p24 accumulation was directly correlated with virus spread. The cell culture inhibitory concentration was defined as the inhibitor concentration in nanomoles/liter which reduced the spread of infection by at least 95%, or CIC95.

[2] = Table I, wild-type RT, read-out: IC*50 wt
[3] = Table I, concentration reducing spread of infection by at least 95%, MT-4 cells
[4] = Table II, wild-type RT, read-out: IC*50 wt

Structure (SMILES) | IC50 (A17 RT) [nM] | IC50 [1, 2] [nM] | further results
COc1ccc(C#CC2(C(F)(F)F)OC(=O)Nc3ccc(Cl)cc32)cc1 (stereo not drawn) | 4100 | 58 | 
O=C1Nc2ccc(Cl)cc2C(C#Cc2ccccc2)(C(F)(F)F)O1 (racemic) [12(+/-), (±) 6-Chloro-4-phenylethynyl-4-trifluoromethyl-1,4-dihydro-2H-3,1-benzoxazin-2-one] | 280 | 12 | IC95 (HIV-1 (wild-type); [3]): 25 nM
N#Cc1ccccc1C#CC1(C(F)(F)F)OC(=O)Nc2ccc(Cl)cc21 (racemic) [Compound 2, (+/-) 6-Chloro-4-(2-cyanophenyl)ethynyl-4-(1,1,1-trifluoromethyl)-1,4-dihydro-2H-3,1-benzoxazin-2-one] | 480 | 25 | IC95 (HIV-1 (wild-type); [3]): 6 nM
O=C1Nc2ccc(Cl)cc2C(C#Cc2ccccc2)(C(F)(F)Cl)O1 (racemic) [Compound 5, (+/-) 4-(1-Chloro-1,1-difluoromethyl)-4-(2-phenylethynyl)-6-chloro-1,4-dihydro-2H-3,1-benzoxazin-2-one] | 350 | 12 | 
O=C1Nc2ccc(Cl)cc2C(C#CCN2CCCC2)(C(F)(F)F)O1 (racemic) [Compound 7, (+/-) 6-Chloro-4-(1,1,1-trifluoromethyl)-4-[(3-(1-pyrrolidinyl))-1-propynyl] -1,4-dihydro-2H-3,1-benzoxazin-2-one] | 3460 | 91 | 
C=CCCC1(C(F)(F)F)OC(=O)Nc2ccc(Cl)cc21 (racemic) [Compound 15, (+/-) 4-(1,1,1,-trifluoromethyl)-4-(1-buten-4-yl)-6-chloro-1,4-dihydro-2H-3,1-benzoxazin-2-one] | > 100000 | 29 | 
C#CC1(C(F)(F)F)OC(=O)Nc2ccc(Cl)cc21 (racemic) [Compound 26, (+/-) 6-Chloro-4-ethynyl-4-(1,1,1-trifluoromethyl)-1,4-dihydro-2H-3,1-benzoxazin-2-one] | > 100000 | 0.24 | 
O=C1Nc2ccc(Cl)cc2[C@](C#Cc2ccccc2)(C(F)(F)F)O1 [3(+), (+) 6-Chloro-4-phenylethynyl-4-trifluoromethyl 1,4-dihydro-2H-3,1-benzoxazin-2-one] | 37000 |  | IC95 (HIV-1 (wild-type); [3]): > 200 nM; IC50 [1]: 2900 nM
O=C1Nc2ccc(Cl)cc2[C@@](C#Cc2ccccc2)(C(F)(F)F)O1 [4(-), (-) 6-Chloro-4-phenylethynyl-4-trifluoromethyl-1,4-dihydro-2H-3,1-benzoxazin-2-one] | 69 |  | IC95 (HIV-1 (wild-type)): 12 nM; IC50 [1]: 8.6 nM
O=C1Nc2ccc(Cl)cc2C(C#Cc2ccccc2[N+](=O)[O-])(C(F)(F)F)O1 (stereo not drawn) [Compound 6] | 19000 | 1700 | 
Cc1ccc(C#CC2(C(F)(F)F)OC(=O)Nc3ccc(Cl)cc32)cc1 (stereo not drawn) [Compound 8] | 8470 | 163 | 
COc1cccc(C#CC2(C(F)(F)F)OC(=O)Nc3ccc(Cl)cc32)c1 (stereo not drawn) [Compound 10] | 390 | 18 | 
COc1ccccc1C#CC1(C(F)(F)F)OC(=O)Nc2ccc(Cl)cc21 (stereo not drawn) [Compound 11] | 270 | 16 | IC95 (HIV-1 (wild-type); [3]): 6 nM
COC(=O)/C=C(/OC)C1(C(F)(F)F)OC(=O)Nc2ccc(Cl)cc21 (stereo not drawn) [Compound 13] | 100000 | 390 | 
O=C1Nc2ccc(Cl)cc2C(CCCCl)(C(F)(F)F)O1 (stereo not drawn) [Compound 14] | 65000 | 130 | 
CCC1(C(F)(F)F)OC(=O)Nc2ccc(Cl)cc21 (stereo not drawn) [Compound 17] | > 100000 | 2300 | 
COCC#CC1(C(F)(F)F)OC(=O)Nc2ccc(Cl)cc21 (stereo not drawn) [Compound 18] | 2650 | 15 | IC95 (HIV-1 (wild-type); [3]): 50 nM
CCCCC1(C(F)(F)F)OC(=O)Nc2ccc(Cl)cc21 (stereo not drawn) [Compound 19] | 25000 | 24 | 
O=C1Nc2ccc(Cl)cc2C(c2ccccc2)(C(F)(F)F)O1 (stereo not drawn) [Compound 20] | 100000 | 145 | 
O=C1Nc2ccc(Cl)cc2C(Sc2ccccc2)(C(F)(F)F)O1 (stereo not drawn) [Compound 21] | 125000 | 860 | 
O=C1Nc2ccc(Cl)cc2C(CCc2ccccc2)(C(F)(F)F)O1 (stereo not drawn) [Compound 22] | 3650 | 55 | 
C=CC1(C(F)(F)F)OC(=O)Nc2ccc(Cl)cc21 (stereo not drawn) [Compound 23] | > 30000 | 1300 | 

Structure (SMILES) | IC50 (A17 RT) [nM] | IC50 [1, 2] [nM] | further results
CN(C)CC#CC1(C(F)(F)F)OC(=O)Nc2ccc(Cl)cc21 (stereo not drawn) [Compound 24] | 1950 | 43 | IC95 (HIV-1 (wild-type); [3]): 100 nM
C=CCC1(C(F)(F)F)OC(=O)Nc2ccc(Cl)cc21 (stereo not drawn) [Compound 25] | > 100000 | 220 | 
O=C1Nc2ccc(Cl)cc2C(C#CCO)(C(F)(F)F)O1 (stereo not drawn) [Compound 27] | > 100000 | 550 | 
CCCC1(C2CC2)OC(=O)Nc2ccc(Cl)cc21 (stereo not drawn) [Compound 28] | 114000 | 307 | IC95 (HIV-1 (wild-type); [3]): 1500 nM
C#CC1(CCC)OC(=O)Nc2ccc(Cl)cc21 (stereo not drawn) [Compound 29] | > 100000 | 1900 | 
COCC#CC1(C2CC2)OC(=O)Nc2ccc(Cl)cc21 (stereo not drawn) [Compound 30] | 3000 | 410 | 
CN(C)CC#CC1(C2CC2)OC(=O)Nc2ccc(Cl)cc21 (stereo not drawn) [Compound 31] | 4250 | 410 | 
CCCC1(c2ccccc2)OC(=O)Nc2ccc(Cl)cc21 (stereo not drawn) [Compound 32] |  | 5400 | 
CCC1(c2ccccc2)OC(=O)Nc2ccc(Cl)cc21 (stereo not drawn) [Compound 33] |  | 300 | 
CCC1(CC)OC(=O)Nc2ccc(Cl)cc21 [Compound 34] | > 300000 | 16500 | 
C#CC1(c2ccccc2)OC(=O)Nc2ccc(Cl)cc21 (stereo not drawn) [Compound 35] | > 300000 | 650 | 
CCCC1(CC)OC(=O)Nc2ccc(Cl)cc21 (stereo not drawn) [Compound 36] | > 300000 | 52 | 
CCCC1(C(C)(C)C)OC(=O)Nc2ccc(Cl)cc21 (stereo not drawn) [Compound 37] | > 100000 | 5300 | 
S=C1Nc2ccc(Cl)cc2C(C2CC2)(C2CC2)O1 [Compound 38] | > 300000 |  | IC50 [1, 4]: 136 nM
CCC1(C2CC2)OC(=S)Nc2ccc(Cl)cc21 (stereo not drawn) [Compound 39] | > 300000 |  | IC50 [1, 4]: 510 nM
CCCC1(C2CC2)OC(=S)Nc2ccc(Cl)cc21 (stereo not drawn) [Compound 40] | 29000 |  | IC50 [1, 4]: 48 nM
CCCC1(C2CCCC2)OC(=S)Nc2ccc(Cl)cc21 (stereo not drawn) [Compound 41] | > 300000 |  | IC50 [1, 4]: 1400 nM
CCCCC1(c2ccccc2)OC(=S)Nc2ccc(Cl)cc21 (stereo not drawn) [Compound 42] |  |  | IC50 [1, 4]: 1450 nM
CCCC1(c2ccccc2)OC(=S)Nc2ccc(Cl)cc21 (stereo not drawn) [Compound 43] |  |  | IC50 [1, 4]: 610 nM
CCC1(c2ccccc2)OC(=S)Nc2ccc(Cl)cc21 (stereo not drawn) [Compound 44] | > 300000 |  | IC95 (HIV-1 (wild-type); Table II, concentration reducing spread of infection by at least 95%, MT-4 cells): 100 nM; IC50 [1, 4]: 15 nM
CCC1(CC)OC(=S)Nc2ccc(Cl)cc21 [Compound 45] | > 300000 |  | IC50 [1, 4]: 560 nM
S=C1Nc2ccc(Cl)cc2C(c2ccccc2)(C2CC2)O1 (stereo not drawn) [Compound 46] | > 300000 |  | IC50 [1, 4]: 41 nM
